Data reported in US12053456B2, “Pharmaceutical compositions for combination therapy” (GENFIT, priority 2017, dated 2024).

System: α-SMA in TGFβ1-induced hHSC
Experiment: α-SMA ELISA in TGFβ1-activated human primary hepatic stellate cells (single agents and combination matrix, EOB/EOHSA)
Assay type: cell-based
Conditions: single agent, 1 hour preincubation, TGFβ1 1 ng/ml, 48 hours
Method: Serum-deprived HSC were preincubated for 1 hour with Elafibranor (A) or Nitazoxanide (B), or Bezafibrate (C) before the activation with the profibrogenic cytokine TGFβ1 (1 ng/ml). After 48 hours of incubation, the expression of α-SMA was measured by ELISA. The obtained values were transformed into percentage inhibition over TGFβ1 control. Data are presented as mean (triplicates)±standard deviation (SD)]. The curve fitting and the calculation of half maximal inhibitory concentration (IC50) were performed with XLFit software 5.3.1.3.
Combinations were tested in a dose-response matrix format and analyzed according to the excess over Bliss (EOB) additivism model. Dilution series of Elafibranor (row) and Nitazoxanide (column) were prepared, including their respective DMSO controls. The resulting mixes were added to serum-deprived HSC, 1 hour prior to the activation with the profibrogenic cytokine TGFβ1 (1 ng/ml). […] (B) EOB scores were calculated as described in Materials and Methods. […] The total EOB score including all combinations was also calculated. […]
Combinations were tested in a dose-response matrix format and analyzed according to the excess over Bliss (EOB) additivism model. […] Percentage of α-SMA inhibition over the TGFβ1 control for all combination pairs was calculated. EOB scores were calculated as described in Materials and Methods. […]

## O=C(Nc1ncc([N+](=O)[O-])s1)c1ccccc1O [TZ, tizoxanide]
  antifibrotic activity (α-SMA) in TGFβ-induced hHSC: profile similar to the parent drug
